BindingDB's records for doi:10.1021/jm950655o (University of Arizona, 1996)

Target: Delta-type opioid receptor (Cavia porcellus)
Assay: Inhibition of binding [3H]cyclo[D-Pen2,p-Cl,-Phe4,D-Pen5] enkephalin to Opioid receptor delta 1 of guinea pig brain membrane (GPB) homogenates.

Q: Which IC50 does the source give for `CC[C@H](C)[C@H](NC(=O)[C@H](CCCN=C(N)N)NC(=O)[C@H](CCCN=C(N)N)NC(=O)[C@H](CC(C)C)NC(=O)[C@H](Cc1ccccc1)NC(=O)[C@H](Cc1ccc(O)cc1)NC(=O)CNC(=O)[C@@H](N)Cc1ccc(O)cc1)C(=O)N[C@@H](CCCN=C(N)N)C(=O)N1CCC[C@H]1C(=O)N[C@@H](CCCCN)C(N)=O` here?
A: > 10 µM
